# Measurements taken from patent US8871934B2, “Fluorene compound and pharmaceutical use thereof” (Japan Tobacco Inc., priority 2008, dated 2014).
# pIC50: −log10 of the molar value. Like-named read-outs stand apart in the source and are kept apart here.
# Biological target: human PDHK2 (hPDHK2) (Homo sapiens (Human), UniProt Q15119)
# Test: Inhibitory action of PDHK activity in vitro (kinase reaction, residual PDH activity measured)
# Format: biochemical
# [1] = PDHK inhibitory activity, class symbol of IC50
# [2] = read-out: PDHK inhibitory activity IC50
Compound,pIC50 [1],pIC50 [2]
Cn1cc(-c2cc(OCCO)cc3c2-c2ccccc2C3(O)C(F)(F)F)cn1 (stereo not drawn) [compound 456],> 7.00,7.35
CN(C)C(=O)COc1cc(-c2cnn(C)c2)c2c(c1)C(O)(C(F)(F)F)c1ccccc1-2 (stereo not drawn) [compound 457],> 7.00,7.52
COc1cc(-c2cnn(CCO)c2)c2c(c1)C(O)(C(F)(F)F)c1ccccc1-2 (stereo not drawn) [compound 458],> 7.00,7.41
O=C1OCCN1CCOc1ccc2c(c1)C(O)(C(F)(F)F)c1ccccc1-2 (stereo not drawn) [compound 459],6.00 to 7.00,6.73
OCCn1cc(-c2cc(Cl)cc3c2-c2ccccc2C3(O)C(F)(F)F)cn1 (stereo not drawn) [compound 460],> 7.00,7.52
O=C(c1cc(-c2cnn(CCO)c2)c2c(c1)C(O)(C(F)(F)F)c1ccccc1-2)N1CCC1 (stereo not drawn) [compound 461],> 7.00,7.52
CN(CC(=O)O)C(=O)COc1ccc2c(c1)C(O)(C(F)(F)F)c1ccccc1-2 (stereo not drawn) [compound 462],< 6.00,5.22
COc1cc(-c2cnn(C)c2)c2c(c1)C(O)(C(F)(F)F)c1ccccc1-2 (stereo not drawn) [compound 463],> 7.00,7.33
Cn1cc(-c2cc(OCCNC(=O)CCC(=O)C(F)(F)F)cc3c2-c2ccccc2C3(O)C(F)(F)F)cn1 (stereo not drawn) [compound 464],> 7.00,7.38
CC(C)n1cc(-c2cccc3c2-c2ccccc2C3(O)C(F)(F)F)cn1 (stereo not drawn) [compound 465],> 7.00,7.21
OC1(C(F)(F)F)c2ccccc2-c2c(-c3cnn(Cc4ccccc4)c3)cccc21 (stereo not drawn) [compound 466],> 7.00,7.26
O=S1(=O)CCCN1CCOc1ccc2c(c1)C(O)(C(F)(F)F)c1ccccc1-2 (stereo not drawn) [compound 468],6.00 to 7.00,6.49
O=C1NCCN1CCOc1ccc2c(c1)C(O)(C(F)(F)F)c1ccccc1-2 (stereo not drawn) [compound 469],6.00 to 7.00,6.71
O=C1OCCCN1CCOc1ccc2c(c1)C(O)(C(F)(F)F)c1ccccc1-2 (stereo not drawn) [compound 470],6.00 to 7.00,6.77
CN(CCOc1cc(-c2cnn(C)c2)c2c(c1)C(O)(C(F)(F)F)c1ccccc1-2)C(=O)C(C)(C)C (stereo not drawn) [compound 471],> 7.00,7.59
COC(=O)c1cc(Br)c2c(c1)C(O)(C(F)(F)F)c1ccccc1-2 (stereo not drawn) [compound 472],6.00 to 7.00,6.74
O=C(c1cc(-c2cnn(CCO)c2)c2c(c1)C(O)(C(F)(F)F)c1ccccc1-2)N1CCCC1 (stereo not drawn) [compound 476],> 7.00,7.28

Compound,pIC50 [1],pIC50 [2]
O=C(O)CCCOc1cc(Cl)c2c(c1)C(O)(C(F)(F)F)c1ccccc1-2 (stereo not drawn) [compound 478],6.00 to 7.00,6.36
COC(=O)COc1cc(Cl)c2c(c1)C(O)(C(F)(F)F)c1ccccc1-2 (stereo not drawn) [compound 480],6.00 to 7.00,6.26
O=C(O)CCCOc1cc(-c2cnn(CCO)c2)c2c(c1)C(O)(C(F)(F)F)c1ccccc1-2 (stereo not drawn) [compound 482],> 7.00,7.40
O=C(O)Cn1cc(-c2cccc3c2-c2ccccc2C3(O)C(F)(F)F)cn1 (stereo not drawn) [compound 483],6.00 to 7.00,6.27
O=C1CCCN1CCOc1cc(-c2cnn(CCO)c2)c2c(c1)C(O)(C(F)(F)F)c1ccccc1-2 (stereo not drawn) [compound 484],> 7.00,7.62
O=C(O)CCn1cc(-c2cccc3c2-c2ccccc2C3(O)C(F)(F)F)cn1 (stereo not drawn) [compound 485],6.00 to 7.00,6.93
NC(=O)CCn1cc(-c2cccc3c2-c2ccccc2C3(O)C(F)(F)F)cn1 (stereo not drawn) [compound 486],> 7.00,7.26
CNC(=O)CCn1cc(-c2cccc3c2-c2ccccc2C3(O)C(F)(F)F)cn1 (stereo not drawn) [compound 487],> 7.00,7.19
CN(C)C(=O)CCn1cc(-c2cccc3c2-c2ccccc2C3(O)C(F)(F)F)cn1 (stereo not drawn) [compound 488],> 7.00,7.28
CN(CCOc1cc(-c2cnn(C)c2)c2c(c1)C(O)(C(F)(F)F)c1ccccc1-2)C(=O)C(C)(C)CO (stereo not drawn) [compound 489],> 7.00,7.66
O=C1COCCN1CCOc1ccc2c(c1)C(O)(C(F)(F)F)c1ccccc1-2 (stereo not drawn) [compound 490],6.00 to 7.00,6.65
O=C1CCCN1CCOc1cc(-c2cn[nH]c2)c2c(c1)C(O)(C(F)(F)F)c1ccccc1-2 (stereo not drawn) [compound 491],> 7.00,7.70
Cc1cc(-c2cnn(CCO)c2)c2c(c1)C(O)(C(F)(F)F)c1ccccc1-2 (stereo not drawn) [compound 492],> 7.00,7.40
NC(=O)Cn1cc(-c2cccc3c2-c2ccccc2C3(O)C(F)(F)F)cn1 (stereo not drawn) [compound 493],> 7.00,7.41
CNC(=O)Cn1cc(-c2cccc3c2-c2ccccc2C3(O)C(F)(F)F)cn1 (stereo not drawn) [compound 494],> 7.00,7.36
CN(C)C(=O)Cn1cc(-c2cccc3c2-c2ccccc2C3(O)C(F)(F)F)cn1 (stereo not drawn) [compound 495],6.00 to 7.00,6.92
